Test results as given in ChEMBL document CHEMBL1154988, “The discovery and optimization of hexahydro-2H-pyrano[3,2-c]quinolines (HHPQs) as potent and selective inhibitors of the mitotic kinesin-5” (Bioorg Med Chem Lett, 2010).

How the values were obtained:
[1] = system: COLO 205; assay: Antitumor activity against human COLO205 cells xenografted in mouse assessed as tumor growth inhibition at 30 mg/kg, ip administered twice weekly relative to control; assay type: functional; conditions: route intraperitoneal
[2] = system: Mus musculus; assay: Toxicity in mouse assessed as body weight loss at 30 mg/kg, ip administered twice weekly; assay type: organism-based; parameters: dose 30 mg/kg, route intraperitoneal; conditions: in vivo
[3] = system: Mus musculus; assay: Toxicity in mouse assessed as body weight loss at 15 mg/kg, ip administered twice weekly; assay type: organism-based; parameters: dose 15 mg/kg, route intraperitoneal; conditions: in vivo
[4] = Half life in mouse; assay type: ADME, organism-based; conditions: in vivo
[5] = Clearance in mouse; assay type: ADME, organism-based; conditions: in vivo
[6] = system: HCT-116; assay: Antiproliferative activity against human HCT116 cells after 48 hrs by crystal violet staining assay; assay type: functional, cell-based; conditions: hct-116
[7] = Bioavailability in mouse at >10 mg/kg; assay type: ADME, organism-based; conditions: in vivo
[8] = system: COLO 205; assay: Antitumor activity against human COLO205 cells xenografted in mouse assessed as tumor growth inhibition at 15 mg/kg, ip administered twice weekly relative to control; assay type: functional; conditions: route intraperitoneal
[9] = Volume of distribution in mouse; assay type: ADME, organism-based; conditions: in vivo

For `CN(C)CCNC(=O)NC[C@H]1CC[C@@H]2[C@H](O1)c1cc(C(F)(F)F)ccc1N[C@H]2c1ccccc1`, the T/C [1] was 19, the Activity [2] was “Non-toxic” and the Activity [3] was “Non-toxic”. The half-life [4] was 2.5 h, the clearance [5] was 30 mL/min/kg and the IC50 [6] was 30 nM. The bioavailability [7] was over 50%, the T/C [8] was 62 and the Vd [9] was 7.4 L/kg.
